Laboratory results published in paper PMC10851415 (Biochemistry, 2024).

Assays:
[1] = biological target: T1, WT PAN endonuclease (Influenza A virus, UniProt C3W5S0, DEL52-63/E64G); assay type: binding, influenza A/California/04/2009(H1N1)
[2] = biological target: T2, I38T mutant PAN endonuclease (Influenza A virus, UniProt C3W5S0, DEL52-63/E64G/I38T); assay type: binding, influenza A/California/04/2009(H1N1)
[3] = biological target: T3, E23K mutant PAN endonuclease (Influenza A virus, UniProt C3W5S0, DEL52-63/E23K/E64G); assay type: binding, influenza A/California/04/2009(H1N1)
[4] = biological target: T1, WT PAN endonuclease; assay type: binding, influenza A/California/04/2009(H1N1); settings: 200 µM
[5] = biological target: T2, I38T mutant PAN endonuclease; assay type: binding, influenza A/California/04/2009(H1N1); remark: listed apart in the source
[6] = biological target: T3, E23K mutant PAN endonuclease; assay type: binding, influenza A/California/04/2009(H1N1); remark: listed apart in the source
[7] = biological target: A36V mutant PAN endonuclease (Influenza A virus, UniProt C3W5S0, A36V/DEL52-63/E64G); assay type: binding, influenza A/California/04/2009(H1N1); settings: 200 µM
[8] = tested on: I38T mutant; settings: cited from earlier work
[9] = tested on: WT and I38T mutants; settings: cited from earlier work

**Q.** For baloxavir acid [BXA], which Kd [1] is on record?
**A.** 343 ± 106 nM

**Q.** And the Kd [2]?
**A.** 9.3 ± 4.2 µM

**Q.** And the Kd [3]?
**A.** 26.1 ± 11.2 µM

**Q.** And the ΔTM [4]?
**A.** 22.9 ±0.08 °C

**Q.** And the “difference in ΔTM compared to WT (lower)” value [5]?
**A.** ~ 8 °C

**Q.** And the ΔTM ([5]; 200 µM)?
**A.** 14.9 ±0.04 °C

**Q.** What about the “difference in ΔTM compared to WT (lower)” value [6] of the same substance?
**A.** < 3 °C

**Q.** What about the ΔTM ([6]; 200 µM) of the same substance?
**A.** 19.8 ±0.06 °C

**Q.** What about the ΔTM [7] of the same substance?
**A.** 21.7 ±0.11 °C

**Q.** What about the reduction in affinity [8] of the same substance?
**A.** 30- to 50 fold

**Q.** And the “ΔTM melting value between the WT and I38T mutants” value [9]?
**A.** 8-10 °C
